Reference: PubChem BioAssay AID1259407 (Chemical Carcinogenesis Research Information System (CCRIS), 2018)
Calls of active or inactive are those of the source. The rule behind the calls is not given here.

Tested on: CCRIS mutagenicity, Ames/micronucleus/aberration tests
Experiment: CCRIS mutagenicity studies
[1] = Test System: AMES SALMONELLA TYPHIMURIUM, Strain/Indicator: TA97, Metabolic Activation: NONE, Method: PREINCUBATION
[2] = Test System: AMES SALMONELLA TYPHIMURIUM, Strain/Indicator: TA98, Metabolic Activation: NONE, Method: PREINCUBATION
[3] = Test System: AMES SALMONELLA TYPHIMURIUM, Strain/Indicator: TA100, Metabolic Activation: NONE, Method: PREINCUBATION
[4] = Test System: AMES SALMONELLA TYPHIMURIUM, Strain/Indicator: TA98, Metabolic Activation: NONE, Method: STANDARD PLATE
[5] = Test System: AMES SALMONELLA TYPHIMURIUM, Strain/Indicator: TA98, Metabolic Activation: RAT, LIVER, S-9, AROCLOR 1254, Method: STANDARD PLATE
[6] = Test System: AMES SALMONELLA TYPHIMURIUM, Strain/Indicator: TA100, Metabolic Activation: NONE, Method: STANDARD PLATE
[7] = Test System: AMES SALMONELLA TYPHIMURIUM, Strain/Indicator: TA100, Metabolic Activation: RAT, LIVER, S-9, AROCLOR 1254, Method: STANDARD PLATE
[8] = Test System: CHINESE HAMSTER V-79, Strain/Indicator: V-79/8-AZAGUANINE, Metabolic Activation: NONE

Cc1c(N)cccc1N
mutagenic call (End Point: IN VITRO CHROMOSOMAL ABERRATIONS, Test System: CHINESE HAMSTER LUNG CELLS (CHL), Metabolic Activation: NONE): active; positive (structural changes) | mutagenic call (End Point: IN VITRO CHROMOSOMAL ABERRATIONS, Test System: CHINESE HAMSTER LUNG CELLS (CHL), Metabolic Activation: RAT, LIVER, S-9, KC-400): active; positive (structural changes) | mutagenic call (End Point: IN VITRO CHROMOSOMAL ABERRATIONS, Test System: CHINESE HAMSTER OVARY CELLS (CHO), Metabolic Activation: NONE): active; positive (structural changes) | mutagenic call (End Point: IN VITRO CHROMOSOMAL ABERRATIONS, Test System: CHINESE HAMSTER OVARY CELLS (CHO), Metabolic Activation: RAT, LIVER, S-9, AROCLOR 1254): inactive; negative | mutagenic call (End Point: IN VITRO CHROMOSOMAL ABERRATIONS, Test System: CHO CELLS, Metabolic Activation: RAT, LIVER, S-9, AROCLOR 1254): inactive; negative | mutagenic call (Test System: AMES SALMONELLA TYPHIMURIUM, Strain/Indicator: TA97, Metabolic Activation: HAMSTER, LIVER, S-9, AROCLOR 1254 (10%), Method: PREINCUBATION): active; positive | mutagenic call [1]: inactive; negative | mutagenic call (Test System: AMES SALMONELLA TYPHIMURIUM, Strain/Indicator: TA97, Metabolic Activation: RAT, LIVER, S-9, AROCLOR 1254 (10%), Method: PREINCUBATION): inactive; negative | mutagenic call (Test System: AMES SALMONELLA TYPHIMURIUM, Strain/Indicator: TA98, Metabolic Activation: HAMSTER, LIVER, S-9, AROCLOR 1254 (10%), Method: PREINCUBATION): active; positive | mutagenic call [2]: inactive; negative | mutagenic call (Test System: AMES SALMONELLA TYPHIMURIUM, Strain/Indicator: TA98, Metabolic Activation: RAT, LIVER, S-9, AROCLOR 1254 (10%), Method: PREINCUBATION): active; positive | mutagenic call (Test System: AMES SALMONELLA TYPHIMURIUM, Strain/Indicator: TA100, Metabolic Activation: HAMSTER, LIVER, S-9, AROCLOR 1254 (10%), Method: PREINCUBATION): active; positive | mutagenic call [3]: inactive; negative | mutagenic call (Test System: AMES SALMONELLA TYPHIMURIUM, Strain/Indicator: TA100, Metabolic Activation: RAT, LIVER, S-9, AROCLOR 1254 (10%), Method: PREINCUBATION): active; positive | mutagenic call (Test System: AMES SALMONELLA TYPHIMURIUM, Strain/Indicator: TA1535, Metabolic Activation: HAMSTER, LIVER, S-9, AROCLOR 1254 (10%), Method: PREINCUBATION): active; positive | mutagenic call (Test System: AMES SALMONELLA TYPHIMURIUM, Strain/Indicator: TA1535, Metabolic Activation: NONE, Method: PREINCUBATION): inactive; negative | mutagenic call (Test System: AMES SALMONELLA TYPHIMURIUM, Strain/Indicator: TA1535, Metabolic Activation: RAT, LIVER, S-9, AROCLOR 1254 (5, 10 OR 30%), Method: PREINCUBATION): inactive; negative

CSCCCCC(=NOS(=O)(=O)O)S[C@@H]1O[C@H](CO)[C@@H](O)[C@H](O)[C@H]1O
mutagenic call (End Point: IN VITRO MICRONUCLEUS, Test System: HUMAN T-LYMPHOCYTES, Metabolic Activation: NONE): inactive; negative

O=NN(C1CCCCC1)C1CCCCC1
mutagenic call (End Point: IN VITRO MICRONUCLEUS, Test System: HUMAN LYMPHOCYTES, Metabolic Activation: NONE): active; positive

CC(=O)ON(C(C)=O)c1ccccc1C
mutagenic call [4]: inactive; negative | mutagenic call [5]: inactive; negative | mutagenic call [6]: inactive; negative | mutagenic call [7]: inactive; negative

O=c1ccn([C@H]2C[C@H](O)[C@@H](CO)O2)c(=O)[nH]1
mutagenic call [1]: inactive; negative | mutagenic call (Test System: AMES SALMONELLA TYPHIMURIUM, Strain/Indicator: TA97, Metabolic Activation: RAT, LIVER, S-9, AROCLOR 1254, Method: PREINCUBATION): inactive; negative | mutagenic call [3]: inactive; negative | mutagenic call (Test System: AMES SALMONELLA TYPHIMURIUM, Strain/Indicator: TA100, Metabolic Activation: RAT, LIVER, S-9, AROCLOR 1254, Method: PREINCUBATION): inactive; negative | mutagenic call [8]: inactive; negative

O=C1C=CC(=C(Cl)Cl)O1
mutagenic call [6]: active; positive

O=[N+]([O-])c1cc2c3c(ccc4cc([N+](=O)[O-])cc(c43)CC2)c1
mutagenic call (Test System: AMES SALMONELLA TYPHIMURIUM, Strain/Indicator: TA98(1,8-DNP6), Metabolic Activation: NONE, Method: STANDARD PLATE): active; positive | mutagenic call (Test System: AMES SALMONELLA TYPHIMURIUM, Strain/Indicator: TA98(NR), Metabolic Activation: NONE, Method: STANDARD PLATE): active; positive | mutagenic call [4]: active; positive

O=S(=O)(O)OCc1c2ccccc2cc2c1ccc1ccccc12
mutagenic call [2]: active; positive

Nc1ccc([N+](=O)[O-])cc1[N+](=O)[O-]
mutagenic call (End Point: IN VITRO CHROMOSOMAL ABERRATIONS, Test System: CHL CELLS, Metabolic Activation: NONE): inactive; negative | mutagenic call (End Point: IN VITRO CHROMOSOMAL ABERRATIONS, Test System: CHL CELLS, Metabolic Activation: RAT, LIVER, S-9, SODIUM PHENOBARBITAL AND 5,6-BENZOFLAVONE): active; positive (structural changes) | mutagenic call (End Point: IN VITRO CHROMOSOMAL ABERRATIONS, Test System: HUMAN PERIPHERAL LYMPHOCYTES, Metabolic Activation: NONE): active; positive | mutagenic call [2]: active; positive | mutagenic call [4]: active; positive | mutagenic call [5]: active; positive | mutagenic call (Test System: AMES SALMONELLA TYPHIMURIUM, Strain/Indicator: TA98, Metabolic Activation: RAT, LIVER, S-9, KANECHLOR 500, Method: PREINCUBATION): active; positive | mutagenic call [3]: active; positive | mutagenic call [6]: inactive; negative | mutagenic call [7]: inactive; negative | mutagenic call (Test System: AMES SALMONELLA TYPHIMURIUM, Strain/Indicator: TA100, Metabolic Activation: RAT, LIVER, S-9, KANECHLOR 500, Method: PREINCUBATION): active; positive | mutagenic call (Test System: UDS RODENT HEPATOCYTES, Strain/Indicator: THY INCORP (NON-S-PHASE), Metabolic Activation: NONE, Method: AUTORADIOGRAPHY): inactive; negative

COc1cccc2c1C(=O)c1c(O)c3c(c(O)c1C2=O)CC(O)(C(=O)CO)CC3OC1CC(N2CCOCC2C#N)C(O)C(C)O1 (configuration not stated)
mutagenic call (Test System: AMES SALMONELLA TYPHIMURIUM, Strain/Indicator: TA100, Metabolic Activation: RAT, LIVER, S-9, AROCLOR 1254): inactive; negative | mutagenic call [8]: active; positive | mutagenic call (Test System: UDS RAT HEPATOCYTES, Strain/Indicator: THY INCORP, Metabolic Activation: NONE, Method: AUTOMATIC COLONY COUNTER): active; positive

C[C@H](CCN=[N+]=[N-])c1ccccc1
mutagenic call (Test System: AMES SALMONELLA TYPHIMURIUM, Strain/Indicator: TA100, Metabolic Activation: RAT, LIVER, S-9, PCB, Method: PREINCUBATION): active; positive

NC1CCN(c2nc3c(cc2F)c(=O)c(C(=O)O)cn3-c2ccc(F)cc2F)C1 (configuration not stated)
mutagenic call (Test System: AMES SALMONELLA TYPHIMURIUM, Strain/Indicator: TA102, Metabolic Activation: NONE, Method: STANDARD PLATE): active; positive

CC(C)N(CC(O)c1ccc(NS(C)(=O)=O)cc1)N=O (configuration not stated)
mutagenic call (Test System: UDS HUMAN HEPATOCYTES, Strain/Indicator: THY INCORP, Metabolic Activation: NONE, Method: AUTORADIOGRAPHY): active; positive | mutagenic call (Test System: UDS RAT HEPATOCYTES, Strain/Indicator: THY INCORP, Metabolic Activation: NONE, Method: AUTORADIOGRAPHY): active; positive
